From patent publication US11572590B2, “Methods for evaluating tumor cell spheroids using 3D microfluidic cell culture device” (Dana-Farber Cancer Institute, Inc., priority 2017, dated 2023) come the findings set out here.

Like-named read-outs stand apart in the source and are kept apart here.

Common to all, as to experiment: SelectScreen Kinase Profiling, single point inhibition and IC50 for off-target kinases
Common to all, as to type: biochemical

The target in test [1] is T1, off-target kinases (Homo sapiens, UniProt O15264).
T1 sequence (O15264 1-365): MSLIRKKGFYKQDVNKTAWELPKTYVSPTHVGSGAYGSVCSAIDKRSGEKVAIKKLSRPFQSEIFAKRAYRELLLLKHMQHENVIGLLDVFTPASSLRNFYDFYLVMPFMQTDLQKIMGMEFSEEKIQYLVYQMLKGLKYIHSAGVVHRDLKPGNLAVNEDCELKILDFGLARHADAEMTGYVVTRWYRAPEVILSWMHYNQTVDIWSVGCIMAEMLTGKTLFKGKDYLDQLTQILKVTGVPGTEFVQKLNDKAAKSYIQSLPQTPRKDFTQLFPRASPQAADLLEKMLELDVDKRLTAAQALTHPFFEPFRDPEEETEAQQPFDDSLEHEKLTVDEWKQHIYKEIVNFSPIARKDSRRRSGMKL
The note with it: MAPK13 (p38 delta), ZLYTE, ATP Km app.

The target of test [2] is off-target kinases (Homo sapiens, UniProt P11362, V561M). The note with it: FGFR1 V561M, mutant y, LanthaScreen Binding. In general terms: TR-FRET usually uses a lanthanide donor and a delayed reading to cut background.
Chain of off-target kinases (Homo sapiens, UniProt P11362, V561M) (P11362 22-822 V561M): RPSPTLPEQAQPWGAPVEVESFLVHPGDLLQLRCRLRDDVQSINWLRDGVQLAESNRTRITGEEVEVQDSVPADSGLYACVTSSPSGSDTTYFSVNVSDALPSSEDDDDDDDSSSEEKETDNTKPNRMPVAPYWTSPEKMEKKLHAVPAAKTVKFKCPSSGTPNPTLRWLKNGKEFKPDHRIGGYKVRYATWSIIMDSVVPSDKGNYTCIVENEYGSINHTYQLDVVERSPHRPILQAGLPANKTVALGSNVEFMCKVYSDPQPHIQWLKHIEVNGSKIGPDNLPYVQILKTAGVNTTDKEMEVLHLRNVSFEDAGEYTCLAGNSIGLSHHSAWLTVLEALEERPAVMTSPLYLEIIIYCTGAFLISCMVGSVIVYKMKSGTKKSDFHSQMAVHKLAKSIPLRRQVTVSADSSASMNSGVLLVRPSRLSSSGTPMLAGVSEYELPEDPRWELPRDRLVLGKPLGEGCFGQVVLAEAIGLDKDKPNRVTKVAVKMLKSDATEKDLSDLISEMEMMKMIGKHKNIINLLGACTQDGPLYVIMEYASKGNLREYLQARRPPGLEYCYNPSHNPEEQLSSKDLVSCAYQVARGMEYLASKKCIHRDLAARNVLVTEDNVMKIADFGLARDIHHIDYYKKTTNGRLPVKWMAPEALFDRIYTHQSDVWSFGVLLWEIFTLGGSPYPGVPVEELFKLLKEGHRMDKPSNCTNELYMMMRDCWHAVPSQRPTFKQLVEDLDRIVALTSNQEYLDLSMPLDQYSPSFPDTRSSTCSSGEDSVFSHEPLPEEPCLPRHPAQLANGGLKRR
For test [3], the target named is off-target kinases (Homo sapiens, UniProt P53671). The note with it: LIMK2, LanthaScreen Binding.
Chain of off-target kinases (Homo sapiens, UniProt P53671) (P53671 whole entry): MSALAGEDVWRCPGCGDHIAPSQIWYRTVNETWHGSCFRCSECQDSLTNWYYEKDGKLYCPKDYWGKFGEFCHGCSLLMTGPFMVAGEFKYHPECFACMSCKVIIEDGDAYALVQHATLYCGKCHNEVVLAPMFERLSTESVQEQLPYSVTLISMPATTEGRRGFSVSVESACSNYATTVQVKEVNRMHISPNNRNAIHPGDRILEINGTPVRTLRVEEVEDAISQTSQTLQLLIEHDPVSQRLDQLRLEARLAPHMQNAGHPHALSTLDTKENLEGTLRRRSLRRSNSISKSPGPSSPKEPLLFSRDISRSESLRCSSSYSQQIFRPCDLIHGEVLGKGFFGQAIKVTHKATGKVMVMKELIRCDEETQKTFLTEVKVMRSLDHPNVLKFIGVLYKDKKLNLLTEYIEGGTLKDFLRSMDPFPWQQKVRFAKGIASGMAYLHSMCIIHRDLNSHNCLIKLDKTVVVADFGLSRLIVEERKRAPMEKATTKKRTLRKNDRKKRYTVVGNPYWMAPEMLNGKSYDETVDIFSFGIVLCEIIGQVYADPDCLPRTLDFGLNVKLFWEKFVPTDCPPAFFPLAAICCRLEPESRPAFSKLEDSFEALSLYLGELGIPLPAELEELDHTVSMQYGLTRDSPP
Test [4] has as its target T2, off-target kinases (Homo sapiens, UniProt Q96PY6).
T2 sequence (Q96PY6 1-1258): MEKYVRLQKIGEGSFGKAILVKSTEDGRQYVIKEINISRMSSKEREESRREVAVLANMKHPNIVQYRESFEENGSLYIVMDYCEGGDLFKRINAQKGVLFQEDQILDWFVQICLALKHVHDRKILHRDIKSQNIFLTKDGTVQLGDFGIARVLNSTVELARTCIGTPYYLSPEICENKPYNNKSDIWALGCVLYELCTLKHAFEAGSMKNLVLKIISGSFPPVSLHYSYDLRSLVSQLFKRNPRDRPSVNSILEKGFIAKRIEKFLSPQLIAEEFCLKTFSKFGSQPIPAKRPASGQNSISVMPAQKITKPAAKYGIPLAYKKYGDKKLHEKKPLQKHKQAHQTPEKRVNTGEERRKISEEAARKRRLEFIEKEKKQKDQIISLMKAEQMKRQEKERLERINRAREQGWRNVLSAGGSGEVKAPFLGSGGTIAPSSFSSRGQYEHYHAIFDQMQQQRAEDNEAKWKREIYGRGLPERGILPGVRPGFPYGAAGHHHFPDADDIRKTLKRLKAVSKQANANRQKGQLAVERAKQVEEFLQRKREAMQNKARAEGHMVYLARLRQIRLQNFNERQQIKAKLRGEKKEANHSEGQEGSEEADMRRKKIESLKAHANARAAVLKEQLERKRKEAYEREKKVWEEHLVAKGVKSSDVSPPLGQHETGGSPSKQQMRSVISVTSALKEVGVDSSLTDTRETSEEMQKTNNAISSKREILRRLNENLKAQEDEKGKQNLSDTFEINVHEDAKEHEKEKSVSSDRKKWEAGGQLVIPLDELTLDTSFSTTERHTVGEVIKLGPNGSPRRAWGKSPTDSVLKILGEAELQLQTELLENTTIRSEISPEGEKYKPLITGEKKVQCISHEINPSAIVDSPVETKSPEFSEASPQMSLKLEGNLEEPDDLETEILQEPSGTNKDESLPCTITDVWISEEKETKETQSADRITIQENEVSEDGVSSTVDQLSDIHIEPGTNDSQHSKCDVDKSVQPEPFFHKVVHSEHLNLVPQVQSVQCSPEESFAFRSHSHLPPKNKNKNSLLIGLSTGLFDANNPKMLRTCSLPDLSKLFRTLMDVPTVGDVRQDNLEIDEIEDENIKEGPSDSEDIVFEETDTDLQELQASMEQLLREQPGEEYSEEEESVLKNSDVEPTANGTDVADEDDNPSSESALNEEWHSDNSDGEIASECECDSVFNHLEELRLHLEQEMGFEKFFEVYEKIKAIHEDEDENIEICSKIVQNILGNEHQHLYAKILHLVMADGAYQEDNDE
The note with it: NEK1, ATP Km app, ZLYTE.

Test [5] relates to off-target kinases.

Regarding `N#Cc1cc(-c2ncnc(Nc3ccc(N4CCN(C5COC5)CC4)cc3)n2)ccc1OC1CCOCC1` [Compound 1, 5-(4-((4-(4-(oxetan-3-yl)piperazin-1-yl)phenyl)amino)-1,3,5-triazin-2-yl)-2-((tetrahydro-2H-pyran-4-yl)oxy)benzonitrile], the inhibition was determined as 7% in test [1] (read-out: % Inhibition 1); 9% in test [1] (read-out: % Inhibition 2); 8% in test [1] (read-out: % Inhibition Avg); 20% in test [2] (read-out: % Inhibition 1); 25% in test [2] (read-out: % Inhibition 2); 23% in test [2] (read-out: % Inhibition Avg). Besides, the inhibition in test [3] (read-out: % Inhibition 1) was determined as 14%; in test [3] (read-out: % Inhibition 2), 19%; in test [3] (read-out: % Inhibition Avg), 17%; in test [4] (read-out: % Inhibition 1), 68%; in test [4] (read-out: % Inhibition 2) it was 70%; in test [4] (read-out: % Inhibition Avg), 69%. The JAK inhibitory activity entry in test [5] is on record as “lacks JAK inhibitory activity”.

As usually defined, the inhibition is the share of the control response that was lost under treatment.
